Key:
[1] = Dilution stability of Cas9 RNP nanocarriers (DLS); format: physicochemical; details: prepared at 375 nM RNP, diluted with HBG, 0.1 nM RNP
Description: LogD7.4 determination of xenopeptides
Octanol-water partition coefficient D at pH 7.4 (logD7.4) was determined as previously reported with slight modification.5
Scheme S3 illustrates the logD7.4 determination procedures of all xenopeptides in this study. Briefly, 10 μL of 10 mg/mL xenopeptides in water were diluted with 90 μL HEPES buffer (20 mM, pH 7.4) in 1.5 mL reaction tubes. 100 μL n-octanol were then added. The tubes were shaken at 1400 rpm for 24 h. Afterwards, the tubes were centrifuged followed by storage at 4 °C for 1 h to separate n-octanol and water phases. 70 μL of each phase were injected for HPLC analysis. The extinction at 280 nm was monitored and the peak area (A) of the xenopeptides was calculated. LogD7.4 was calculated as log(Aoctanol / Awater).
All experiments were performed in triplicate.
Preparation of Cas9 RNP and Cas9 RNP/ssDNA nanocarriers […]
The hydrodynamic size, PDI and zeta potential of Cas9 RNP nanocarriers were measured by DLS using a Zetasizer Nano ZS (Malvern Instruments, UK). […] The hydrodynamic size of Cas9 RNP nanocarriers containing 1.25 μg Cas9 protein and 0.25 μg sgRNA (Cas9/sgRNA, 1:1 molar ratio) in 100 μL HBG was measured.
Afterwards, 700 μL HEPES buffer (20 mM, pH 7.4) were added to each sample and the soluti on was mixed for the zeta potential measurement. […] The size and zeta potential of diluted samples were measured as described above. […]

HeLa WT cells [2] = test: Endocytosis pathway study with inhibitors; format: cell-based; details: 1 mM amiloride 2 h, 75 nM RNP, 4 h, flow cytometry
Description: (§1) sgRNA amount in naked Cas9/sgRNA ribonucleoproteins (Cas9 RNPs) or Cas9 RNP nanocarriers were determined using a Quant-iTTM RiboGreen® RNA assay kit (Invitrogen, CA, USA). 50 μL of naked Cas9 RNPs or Cas9 RNP nanocarriers con-taining 250 ng Cas9 protein and 50 ng sgRNA were mixed with 50 μL of TE buffer and were added to the 96-well plate. The plate was incubated for 10 min. Afterwards, 100 μL of Ribogreen solution (diluted 1:100 in TE buffer) was added to each well.
(§2) The plate was incubated for another 5 min. Ribogreen fluorescence intensity was detected using a microplate reader (Spectra-fluor Plus, Tecan, Männedorf, Switzerland) with excitation and emission wavelength of 485 and 528 nm, respectively. […]
(§3) Cells were harvested and resuspended in 600 μL of FACS buffer (PBS buffer containing 10 % FBS). […] The DAPI signal and BFP fluorescence were detected with 405 nm excitation and 450 nm emission. The eGFP and ATTO488 fluorescence was assayed with 488 nm excitation and 530 nm emission. The ATTO647N fluorescence was assayed with 640 nm excitation and 670 nm emission. Ten thousand of isolated live cells were counted and evaluated. The data were analyzed using FlowJo 7.6.5 by FlowJo, LLC (Becton, Dickinson and Company, USA).
(§4) Cell viability was determined using an MTT assay. […]
(§5) Cellular uptake of Cas9 RNP nanocarriers was evaluated by flow cytometry and confocal laser scanning microscopy (CLSM). […]

HeLa WT cells [3] = test: Cellular uptake of Cas9 RNP nanocarriers (flow cytometry); format: cell-based; details: 75 nM RNP, 20 % ATTO488-sgRNA, 4 h, flow cytometry MFI
Description: as §1, §2, §3, §4, §5

Compound: CCCCC/C=C\C/C=C\CCCCCCCC(=O)NCCCC[C@H](NC(=O)CCCCCCC/C=C\C/C=C\CCCCC)C(=O)NCCCC[C@H](NC(=O)c1cc2ccccc2cc1C(=O)NCCNCCNCCNCCNC(=O)[C@H](Cc1ccc(O)cc1)NC(=O)[C@H](Cc1ccc(O)cc1)NC(=O)[C@H](Cc1ccc(O)cc1)NC(=O)[C@@H](N)CCCCN=[N+]=[N-])C(=O)NCCNCCNCCNCCNC(=O)c1cc2ccccc2cc1C(=O)N[C@@H](Cc1ccc(O)cc1)C(=O)N[C@@H](Cc1ccc(O)cc1)C(=O)N[C@@H](Cc1ccc(O)cc1)C(=O)O [Ntp1-LinA]
- nanocarrier size detectability upon dilution [1]: still detectable
- Cas9 RNP uptake after pretreatment with amiloride (macropinocytosis) (HeLa WT cells [2]): blocked
- enhanced sgRNA uptake compared to the Stp-based analogue (HeLa WT cells [3]): 7.3 fold

Reference: publication PMC10360056, “Chemical Evolution of Amphiphilic Xenopeptides for Potentiated Cas9 Ribonucleoprotein Delivery” (Journal of the American Chemical Society, 2023)
